24 compounds from patent publication US5039691A, “5-(1-(imidazol)methyl)-3,3-disubstituted-2(3H)furanone derivatives” (Marion Merrell Dow Inc., priority 1990, dated 1991) can be followed below.

Structures can show the parent of a compound that is named as a salt. Some results are limits rather than exact numbers.

Test [1] has as its target T1, muscarinic cholinergic receptors on intestinal (ileal-longitudinal) smooth muscle (Cavia porcellus, UniProt H0W1Z3).
T1 construct: The longitudinal muscle, with the myenteric plexus attached, is separated from the underlying circular muscle; from tissue; host or cells: guinea pig ileum, longitudinal smooth muscle with myenteric plexus
The test can be described thus: Antimuscarinic test: antagonism of carbachol contraction of isolated ileum (Muscarinic Antagonist Activity, Ileum). The arrangement: species or system guinea pig. The settings on record: carbachol agonist, 37° C.

For test [2], the system named is Male Guinea pigs. In words: Primary in vivo bronchodilator assay for muscarinic antagonists (reversal of carbachol bronchoconstriction). Also on record: species or system guinea pig. The following applies: cumulative dose causing 50% reversal of carbachol bronchoconstriction; for ED50: Cavia porcellus, iv; for Bronchodilator Activity ED50: i.v. As for the experimental part: PRIMARY IN VIVO BRONCHODILATOR ASSAY FOR MUSCARINIC ANTAGONISTS Male Guinea pigs were anesthetized by urethane. The trachea, carotid artery and jugular vein were cannulated. Animals were ventilated with room air at a constant rate and volume. Airway pressure was measured from a side port of the tracheal catheter, and blood pressure and heart rate were monitored as well. After a stable baseline period, an aerosol of carbachol was administered via an ultrasonic nebulizer. Once the bronchoconstrictor response plateaued, test compound was given in increasing i.v. doses to cause graded, cumulative reductions in airway pressure. If more than a 50% reversal of bronchoconstriction occurred, an ED50 value for bronchodilator potency was calculated using a probit analysis. The ED50 was defined as the cumulative i.v. dose that caused a 50% reversal of bronchoconstriction.

T1 sequence (H0W1Z3 1-590): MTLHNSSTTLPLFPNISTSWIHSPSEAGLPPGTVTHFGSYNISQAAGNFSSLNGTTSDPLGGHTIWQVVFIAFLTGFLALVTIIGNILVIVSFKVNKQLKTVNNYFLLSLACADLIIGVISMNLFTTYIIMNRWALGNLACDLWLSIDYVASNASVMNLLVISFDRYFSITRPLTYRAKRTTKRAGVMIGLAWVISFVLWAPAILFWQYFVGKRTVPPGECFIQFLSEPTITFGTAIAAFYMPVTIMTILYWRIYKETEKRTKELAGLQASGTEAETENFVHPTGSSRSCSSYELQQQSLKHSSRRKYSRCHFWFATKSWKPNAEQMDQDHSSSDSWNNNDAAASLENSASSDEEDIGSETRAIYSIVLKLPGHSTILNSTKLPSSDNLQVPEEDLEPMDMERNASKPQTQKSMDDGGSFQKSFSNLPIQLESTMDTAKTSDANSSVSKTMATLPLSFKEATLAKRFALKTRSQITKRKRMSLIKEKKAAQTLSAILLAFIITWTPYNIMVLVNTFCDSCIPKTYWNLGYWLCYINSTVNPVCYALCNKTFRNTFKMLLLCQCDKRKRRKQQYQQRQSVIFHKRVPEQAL

In test [1], `COC(=O)c1nccn1CC1CC(c2ccccc2)(c2ccccc2)C(=O)O1` (centres unmarked) [5-[1-(2-Carbomethoxyimidazol)methyl]-4,5-dihydro-3,3-diphenyl-2(3H)furanone hydrochloride] yielded a Kb of 435 nM.

As to `CC(C)(C)c1nccn1CC1CC(c2ccccc2)(c2ccccc2)C(=O)O1` (centres unmarked) [5-[1-(2-tert-Butylimidazol)methyl]-4,5-dihydro-3,3-diphenyl-2(3H)furanone hydrochloride], the Kb in test [1] was determined as 3.3 nM. Further, in test [2], the ED50 stood at 0.14 mg/kg.

On to `Cc1n(CC2CC(c3ccccc3)(c3ccccc3)C(=O)O2)cc[n+]1C` (centres unmarked) [5-[1-(2,3-Dimethylimidazol)methyl]-4,5-dihydro-3,3-diphenyl-2(3H)furanone bromide], for which the Kb in test [1] turned out to be 71 nM. In addition, the ED50 in test [2] was found to be 0.85 mg/kg.

Turning to `CC(C)c1n(CC2CC(c3ccccc3)(c3ccccc3)C(=O)O2)cc[n+]1C` (centres unmarked) [5-[1-(2-Isopropyl-3-methylimidazol)methyl]-4,5-dihydro-3,3-d] [5-[1-(2-Isopropyl-3-methylimidazol)methyl]-4,5-dihydro-3,3-diphenyl-2(3H)furanone iodide], in test [2], the “Bronchodilator Activity ED50” value came to 0.06 mg/kg.

`O=C1OC(C[N+]2=C3CCCCCN3CCC2)CC1(c1ccccc1)c1ccccc1` (centres unmarked) [5-[(1,8-Diazabicyclo[5.4.0]undec-7-en-8-yl)methyl]-4,5-dihydro-3,3-diphenyl-2(3H)furanone chloride hydrate]: the Kb in test [1] was > 1000 nM. Also, the ED50 in test [2] was > 10 mg/kg.

`O=C1OC(Cn2cnc3ccccc32)CC1(c1ccccc1)c1ccccc1` (centres unmarked) [5-[(1-Benzimidazol)methyl]-4,5-dihydro-3,3-diphenyl-2(3H)furanone] had a Kb in test [1] of 1280 nM.

As to `Cc1n(CC2CC(c3ccccc3)(c3ccccc3)C(=O)O2)cc[n+]1Cc1ccccc1` (centres unmarked) [5-[1-(2-Methyl-3-benzylimidazol)methyl]-4,5-dihydro-3,3-diphenyl-2(3H)furanone bromide], the Kb in test [1] came to 544 nM.

Regarding `CC(C)Cc1nccn1CC1CC(c2ccccc2)(c2ccccc2)C(=O)O1` (centres unmarked) [5-[1-(2-Isobutylimidazol)methyl]-4,5-dihydro-3,3-diphenyl-2(3H)furanone hydrochloride], in test [1], the Kb was 489 nM. Moreover, the ED50 in test [2] was > 10 mg/kg.

Take `O=C1OC(Cn2ccnc2)CC1(c1ccccc1)c1ccccc1` (centres unmarked) [5-[(1-Imidazol)methyl]-4,5-dihydro-3,3-diphenyl-2(3H)furanone]: the Kb in test [1] was found to be 373 nM.

On to `COCCc1n(CC2CC(c3ccccc3)(c3ccccc3)C(=O)O2)cc[n+]1C` (centres unmarked) [5-[1-(2-Methoxyethyl-3-methylimidazol)methyl]-4,5-dihydro-3,3-diphenyl-2(3H)furanone iodide hydrate], for which the Kb in test [1] is 39 nM.

In the case of `CC(C)c1n(CC2CC(c3ccccc3)(c3ccccc3)C(=O)O2)cc[n+]1C` (centres unmarked) [5-[1-(2-Isopropyl-3-methylimidazol-methyl]-4,5-dihydro-3,3-d] [5-[1-(2-Isopropyl-3-methylimidazol-methyl]-4,5-dihydro-3,3-diphenyl-2(3H)furanone bromide], in test [2], the “Bronchodilator Activity ED50” value turned out to be 0.007 mg/kg.

Consider `COCc1nccn1CC1CC(c2ccccc2)(c2ccccc2)C(=O)O1` (centres unmarked) [5-[1-[2-(2-Methoxymethyl)imidazol]methyl]-4,5-dihydro-3,3-diphenyl-2(3H)furanone hydrochloride hydrate], for which, in test [1], the Kb was determined as 67 nM. Further, the ED50 in test [2] is > 10 mg/kg.

Consider `COCCc1nccn1CC1CC(c2ccccc2)(c2ccccc2)C(=O)O1` (centres unmarked) [5-[1-(2-Methoxyethylimidazol)methyl]-4,5-dihydro-3,3-diphenyl-2(3H)furanone hydrochloride], for which, in test [1], the Kb amounted to 638 nM. Moreover, the ED50 in test [2] was > 10 mg/kg.

For the compound `Cc1cccn2cc[n+](CC3CC(c4ccccc4)(c4ccccc4)C(=O)O3)c12` (centres unmarked) [1-[(2,3,4,5-Tetrahydro-5-oxo-4,4-diphenyl-2-furanyl)methyl]-8-methylimidazo[1,2-a]pyridinium chloride hydrate], the Kb in test [1] was found to be 74 nM.

Compound `O=C1OC(C[n+]2ccn3ccccc32)CC1(c1ccccc1)c1ccccc1` (centres unmarked) [1-[(2,3,4,5-Tetrahydro-5-oxo-4,4-diphenyl-2-furanyl)methyl]imidazo[1,2-a]pyridinium chloride hydrate] registered a Kb in test [1] of 45 nM.

`CCCCc1nccn1CC1CC(c2ccccc2)(c2ccccc2)C(=O)O1` (centres unmarked) [5-[1-(2-n-Butylimidazol)methyl]-4,5-dihydro-3,3-diphenyl-2(3H)furanone] showed a Kb in test [1] of 113 nM. Besides, in test [2], the ED50 was > 10 mg/kg.

The compound `CCn1cc[n+](CC2CC(c3ccccc3)(c3ccccc3)C(=O)O2)c1` (centres unmarked) [5-[1-(Ethylimidazol)methyl]-4,5-dihydro-3,3-diphenyl-2(3H)furanone bromide] came in with a Kb in test [1] of 229 nM.

`O=C1OC(Cn2ccnc2Cc2ccccc2)CC1(c1ccccc1)c1ccccc1` (centres unmarked) [5-[1-(2-Benzylimidazol)methyl]-4,5-dihydro-3,3-diphenyl-2(3H)furanone hydrochloride]: the Kb in test [1] is 223 nM.

As for `CCc1nc(C)cn1CC1CC(c2ccccc2)(c2ccccc2)C(=O)O1` (centres unmarked) [5-[1-(2-Ethyl-4-methylimidazol-methyl]-4,5-dihydro-3,3-diphenyl-2(3H)furanone hydrobromide], in test [1], the Kb was found to be 86 nM.

`CCc1nccn1CC1=CC(c2ccccc2)(c2ccccc2)C(=O)O1` [5-[1-(2-Ethylimidazol)methyl]-3,3-diphenyl-2(3H)furanone] yielded a Kb in test [1] of 8.2 nM. In test [2], the ED50 was determined as 1.9 mg/kg.

Turning to `CCOCc1nccn1CC1CC(c2ccccc2)(c2ccccc2)C(=O)O1` (centres unmarked) [5-[1-(2-Ethoxymethylimidazol)methyl]-4,5-dihydro-3,3-diphenyl-2(3H)furanone], the Kb in test [1] is > 1000 nM. In test [2], the ED50 was > 10 mg/kg.

In test [1], `O.O=C1OC(C[n+]2ccn3c2CCC3)CC1(c1ccccc1)c1ccccc1.[Cl-]` (centres unmarked) [6,7-Dihydro-1-[(2,3,4,5-tetrahydro-5-oxo-4,4-diphenyl-2-furanyl)methyl]-5H-pyrrolo[1,2-a]imidazolium chloride hydrate] yielded a Kb of 33 nM. In test [2], the ED50 stood at 0.7 mg/kg.

The compound `O=C1OC(Cn2ccnc2-c2ccccc2)CC1(c1ccccc1)c1ccccc1` (centres unmarked) [5-[1-(2-Phenylimidazol)methyl]-4,5-dihydro-3,3-diphenyl-2(3H)furanone] gave a Kb in test [1] of 5920 nM. Further, the ED50 in test [2] is > 6 mg/kg.

`COCc1n(CC2CC(c3ccccc3)(c3ccccc3)C(=O)O2)cc[n+]1C` (centres unmarked) [5-[1-(2-Methoxymethyl-3-methylimidazol)methyl]-4,5-dihydro-3,3-diphenyl-2(3H)furanone iodide] returned a Kb in test [1] of 40 nM.

Broadly, the Kb is the equilibrium dissociation constant of an antagonist, usually derived from a functional assay. A word on the ED50: it is the midpoint of the dose-response relation.
